From paper PMC10569260 (Nature methods, 2023)

What was measured:
[1] = test system: locomotion; assay: Open field locomotion with infusion / in vivo uncaging in the VTA; design: species or system mouse; conditions: naloxone 3 mg/kg intraperitoneal before CNV-Y-DAMGO infusion and light
[2] = test system: inhibitory synaptic transmission onto CA1 pyramidal neurons (native opioid receptors); assay type: cell-based, mouse; conditions: CTAP 1 μM, with CNV-Y-DAMGO uncaging

| Compound | effect on locomotor response to DAMGO photorelease [1] | effect on optically-evoked suppression of synaptic transmission [2] |
| --- | --- | --- |
| C=CCN1CC[C@]23c4c5ccc(O)c4O[C@H]2C(=O)CC[C@@]3(O)[C@H]1C5 [naloxone] | strongly attenuated | – |
| CTAP | – | completely blocked |
